Results from the supplement of paper PMC4862054.

Tests used:
BT-474 [1] = conditions: 72 h
Summary of the method: (§1)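 EC50 was fitted from dose-response curves and censored at the highest concentration tested. To build those curves, breast cancer cell lines (20 µl suspension) were seeded into 384-well plates containing compound at 5 concentrations in 10-fold steps over a compound-specific 10,000-fold range and incubated for 72 h. Readouts were CellTox Green fluorescence (485/520 nm) for cell death and then CellTiter-Glo luminescence for viability, with each plate normalised to 0.1 % DMSO and a positive kill control.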

HDQ-P1 [2] = conditions: 72 h
Summary of the method: as §1

CAL-120 [3] = conditions: 72 h
Summary of the method: as §1

MDA-MB-436 [4] = conditions: 72 h
Summary of the method: as §1

BT-549 [5] = conditions: 72 h
Summary of the method: as §1

MDA-MB-231 [6] = conditions: 72 h
Summary of the method: as §1

MDA-MB-468 [7] = conditions: 72 h
Summary of the method: as §1

MDA-MB-453 [8] = assay: drug sensitivity score (DSS), CellTox Green (DSS (AUC-based score)); higher = stronger drug effect (viability inhibition or cytotoxicity); extreme values may be limits of the assay; conditions: incubation time: 72 h
Summary of the method: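 Breast cancer cell lines were seeded in 20 µl suspension into 384-well plates already holding compound and incubated for 72 h. Each compound was tested at 5 concentrations in 10-fold steps across its own 10,000-fold range. Plates were normalised to 0.1 % DMSO and a positive kill control after CellTox Green and then CellTiter-Glo readings. The area under the fitted dose-response curve served as the basis for the drug sensitivity score.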

MDA-MB-231 [9] = conditions: 72 h; remark: listed apart in the source
Procedure: (§2)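 Drug sensitivity and resistance testing (DSRT) of breast cancer cell lines in 384-well plates, 5 concentrations in 10-fold dilutions over a compound-specific 10,000-fold range. After 72 h, cytotoxicity was read by CellTox Green fluorescence and viability by CellTiter-Glo luminescence (multiplexed), normalised to DMSO and benzethonium chloride controls. EC50 is the inflection point of the fitted dose-response curve (bottom asymptote free, so it can be relative for partial curves) and is censored at the highest tested concentration. Rows with DSS 0 (no meaningful response) were excluded.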

MDA-MB-468 [10] = conditions: 72 h; remark: listed apart in the source
Procedure: as §2

Hs578T [11] = conditions: 72 h
Procedure: as §2

HCC1937 = conditions: 72 h
Summary of the method: (§3)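 Plates of 384 wells holding compound in 5 µl medium received breast cancer cell lines in 20 µl suspension and were incubated 72 h. CellTiter-Blue (2.5 µl, 2 h, 37 °C) was used for viability, read at 560/590 nm, and every plate was normalised to vehicle and a positive kill control and assessed by Z'-factor. The EC50 derives from a percent-inhibition dose-response curve fit censored at the highest concentration, leaving out rows whose drug sensitivity score was zero.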

HCC1599 = conditions: 72 h
Summary of the method: as §3

SK-BR-3 = conditions: 72 h
Summary of the method: as §3

BT-549 [12] = conditions: 72 h; remark: listed apart in the source
Summary of the method: as §3

MDA-MB-231 [13] = conditions: 72 h; remark: listed apart in the source
Summary of the method: as §3

CAL-148 = conditions: 72 h
Summary of the method: as §3

MDA-MB-453 [14] = conditions: 72 h
Summary of the method: as §3

BT-474 [15] = conditions: 72 h; remark: listed apart in the source
Summary of the method: as §3

Hs578T [16] = conditions: 72 h; remark: listed apart in the source
Summary of the method: as §3

MFM-223 = conditions: 72 h
Summary of the method: as §3

CAL-120 [17] = conditions: 72 h; remark: listed apart in the source
Summary of the method: as §3

HCC1143 = conditions: 72 h
Summary of the method: as §3

MDA-MB-436 [18] = conditions: 72 h; remark: listed apart in the source
Summary of the method: as §3

MDA-MB-468 [19] = conditions: 72 h; remark: listed apart in the source
Summary of the method: as §3

DU-4475 = conditions: 72 h
Summary of the method: as §3

HDQ-P1 [20] = conditions: 72 h; remark: listed apart in the source
Summary of the method: as §3

CAL-85-1 = conditions: 72 h
Summary of the method: as §3

CAL-51 = conditions: 72 h
Summary of the method: as §3

Row | SMILES | EC50, CellTiter-Glo (CAL-120 [3]) [nM] | EC50, CellTiter-Glo (MDA-MB-436 [4]) [nM] | EC50, CellTiter-Glo (BT-549 [5]) [nM] | drug sensitivity score (MDA-MB-453 [8]) | EC50, CellTox Green (MDA-MB-468 [10]) [nM] | EC50, CellTiter-Blue viability (HCC1937) [nM] | EC50, CellTiter-Blue viability (SK-BR-3) [nM] | EC50, CellTiter-Blue viability (BT-549 [12]) [nM] | EC50, CellTiter-Blue viability (MDA-MB-231 [13]) [nM] | EC50, CellTiter-Blue viability (CAL-148) [nM] | EC50, CellTiter-Blue viability (MDA-MB-453 [14]) [nM] | further results
1 | CC[C@H](Nc1ncnc2[nH]cnc12)c1nc2cccc(F)c2c(=O)n1-c1ccccc1 [GS-1101] | 8050 | 6900 | 4670 | 0 | 1430 |  |  |  |  |  |  | EC50, CellTiter-Glo (BT-474 [1]): 2950 nM; EC50, CellTiter-Glo (HDQ-P1 [2]): 4300 nM; EC50, CellTiter-Glo (MDA-MB-231 [6]): 4740 nM; EC50, CellTiter-Glo (MDA-MB-468 [7]): 7440 nM; EC50, CellTox Green (MDA-MB-231 [9]): 8630 nM
2 | N#Cc1ccc(C(c2ccc(C#N)cc2)n2cncn2)cc1 [Letrozole] |  |  |  | 0 |  | > 10000 |  |  |  |  |  | EC50, CellTox Green (Hs578T [11]): > 10000 nM; EC50, CellTiter-Blue viability (HCC1599): 311 nM
3 | Nc1nc(F)nc2c1ncn2[C@@H]1O[C@H](CO)[C@@H](O)[C@@H]1O [Fludarabine] | > 10000 | 7390 | 5920 | 0 |  | 1320 | 2120 |  |  |  |  | 
4 | C1CN1c1nc(N2CC2)nc(N2CC2)n1 [Triethylenemelamine] |  |  |  |  |  |  |  | 9400 | 698 | 3220 | 9220 | 
5 | CCN(CC)CCCC(C)Nc1c2ccc(Cl)cc2nc2ccc(OC)cc12 (stereo not drawn) [Mepacrine] |  |  |  | 0 | > 50000 | 519 | 1520 | 1440 | 614 | 1140 | 1260 | EC50, CellTiter-Blue viability (BT-474 [15]): 1760 nM; EC50, CellTiter-Blue viability (Hs578T [16]): 1980 nM; EC50, CellTiter-Blue viability (MFM-223): 2220 nM; EC50, CellTiter-Blue viability (CAL-120 [17]): 1120 nM; EC50, CellTiter-Blue viability (HCC1143): 1520 nM; EC50, CellTiter-Blue viability (MDA-MB-436 [18]): 1290 nM; EC50, CellTiter-Blue viability (MDA-MB-468 [19]): 1430 nM; EC50, CellTiter-Blue viability (DU-4475): 1600 nM; EC50, CellTiter-Blue viability (HDQ-P1 [20]): 833 nM; EC50, CellTiter-Blue viability (CAL-85-1): 1800 nM; EC50, CellTiter-Blue viability (CAL-51): 1950 nM
